Data as given in patent US20240385187A1, “BI-[…] REPORTER PARTICLE AND METHODS FOR MAKING AND USING THE SAME” (The Trustees of Indiana University, priority 2021, published 2024).

Test system: phagosomes of RAW264.7 macrophage cells
Assay: Effect of V-ATPase inhibition on phagosome acidification and proteolysis, monitored in single phagosomes with Janus pH-proteolysis reporter particles
Format: cell-based
Conditions: for duration of proteolysis: onset of proteolysis to start of Rhodamine 110 intensity decrease, without ConA 24±10
Method: Dual color imaging started 5 minutes after Janus particle probes were added to cells and lasted for approximately 45 minutes. After particle internalization, the fluorescence intensity of the pH reporter increased first, followed by a similar intensity increase of the proteolysis reporter, indicating the progress of maturation (FIG. 6A). It was noted that some […] slowly diffused into the cell cytoplasm by the end of imaging, causing a slightly elevated fluorescence in the cell. This is expected because small dye molecules can passively diffuse across the phagosome membrane.
ConcanamycinA (ConA), a V-ATPase inhibitor, was added to disrupt acidification of phagosomes and its effect on proteolytic activities was monitored. […] The fluorescence decrease was caused by the continuous diffusion of Rhodamine 110, already in the phagosome lumen prior to the ConA addition, into the cell cytoplasm. After ConA addition, Rhodamine 110 lost by diffusion was not replaced by the generation of more.
To quantify the effect of ConA on proteolysis, duration of proteolysis was measured. In cells without ConA treatment, this was measured as the time from the onset of proteolysis (tproteolysis) to the start of the intensity plateau. In cells treated with ConA, this was measured as the time from the onset of proteolysis (tproteolysis) to the time when the Rhodamine 110 intensity started to decrease (FIG. 7C). Phagosome proteolysis in cells without ConA treatment lasted for 24±10 minutes on average (FIG. 7C). However, the duration of proteolysis was shorted to 16±5 minutes in the presence of 100 nM ConA and 10±4 minutes with 500 nM ConA.
In all phagosomes examined (N=21), proteolysis stopped within a short time after termination of acidification. […] This is consistent with the observation noted above that proteolysis started when the phagosome acidified to a threshold pH of 5.8±0.7. […] With the Janus reporter particle, it was identified that an acidic lumen is a prerequisite for the start of proteolytic activities in phagosomes, and their temporal relationship inside single phagosomes was quantitatively determined; data impossible to obtain by prior methods. Thus the bifunctional Janus pH-proteolysis reporter particle was able to detect both a disruption in phagosome acidification and a disruption in proteolytic activity inside a single phagosome caused by the presence of the V-ATPase inhibitor ConA.
Carboxylate polystyrene particles (500 nm) were purchased from Polysciences (Warrington, PA, USA). CF™ 640R NHS ester (succinimidyl ester), fluorescent peptide Rhodamine 110, bis-(N-CBZ-L-phenylalanyl-L-arginine amide) dihydrochloride (Z-FR-R110) were purchased from Biotium (Fremont, CA, USA). Amine-functionalized polystyrene particle (3 μm), carboxylated fluorophores (500 nm, ex/em 580/605), Alexa Fluor 568 NHS ester (succinimidyl ester), Alexa Fluor 647 NHS ester (succinimidyl ester), pHrodo™ iFL Red STP Ester, EZ-Link™ NHS-Biotin, sulfo-NHS (N-succinimidyl ester), streptavidin, and lipopolysaccharides from Escherichia coli (LPS) were purchased from ThermoFisher Scientific (Waltham, MA, USA). Bovine serum albumin (BSA), trypsin, nigericin sodium salt, and immunoglobulin G (IgG) from rabbit plasma were purchased from MilliporeSigma (St. Louis, MO, USA). 1-(3-Dimethylaminopropyl)-3-ethylcarbodiimide hydrochloride (EDC) was purchased from Alfa Aesar (Haverhill, MA, USA). Biotin pentylamine was purchased from Soltec BioScience (Beveraly MA). Concanamycin A was purchased from Santa Cruz Biotechnology (Dallas, TX, USA). Raw 264.7 macrophage cells were purchased from ATCC (Manassas, VA, USA). Ringer's solution (pH=7.2, 10 mM HEPES, 10 mM glucose, 155 mM NaCl, 2 mM NaH2PO4, 5 mM KCl, 2 mM CaCl2, 1 mM MgCl2) was used for live-cell imaging. Potassium-rich solution (135 mM KCl, 2 mM […], 1.2 mM CaCl2, 0.8 mM MgSO4) was used for intracellular pH calibration. […]

C/C=C/[C@H]1O[C@@](O)([C@@H](C)[C@H](O)[C@H](C)[C@H]2OC(=O)/C(OC)=C/C(C)=C/[C@@H](C)[C@@H](O)[C@@H](CC)[C@@H](O)[C@H](C)C/C(C)=C/C=C/[C@@H]2OC)C[C@@H](O[C@H]2C[C@@H](O)[C@H](OC(N)=O)[C@@H](C)O2)[C@@H]1C [ConA, Concanamycin A]
phagosome acidification and proteolytic activity (100 nM ConA added to cells before the onset of acidification): failed to acidify or exhibit proteolytic activities
duration of proteolysis (100 nM ConA, N=11): 16 ± 5 min
duration of proteolysis (500 nM ConA, N=10): 10 ± 4 min
phagosome proteolysis (Rhodamine 110 fluorescence) (ConA added after acidification had started, within minutes after acidification stopped): phagosome proteolysis also stopped
phagosome acidification (ConA added to cells after acidification had started, lumen pH started to increase): stopped acidifying
average pH of single phagosomes at the termination point of proteolysis (ConA-treated cells, N=21 phagosomes): 5.1±0.4
